Our source for the IC50 values is PubChem BioAssay AID624344 (Sanford-Burnham Center for Chemical Genomics, 2012).

Assay [1] concerns Cytotoxicity. Description: inhibitors of PAF-induced NFkB signaling in CF airway cells, dose response, cell-based, uHTS hits, panel, cytotoxicity readout (AID 624344). Conditions: CF bronchial epithelial cells, mean of runs.
Assay in assay [2]: as above
Conditions: CF bronchial epithelial cells, PAF-induced NFkB reporter inhibition; with PAF, mean of runs.

Structures are written as SMILES. pIC50: −log10 of the molar value. Calls of active or inactive are those of the source. The rule behind the calls is not given here.

For `Cc1nn(-c2nccs2)c2c1C(=O)CC(C)(C)C2Br` (stereo not drawn), the results for the negative logarithm of the IC50 (pIC50) in assay [1] and in assay [2] were 4.41 and 5.29, respectively.

Consider `C=Cc1ccc(CC2(C)C(=O)Nc3ccc(-c4cccnc4)cc32)cc1` (stereo not drawn), for which the values for the pIC50 in assay [1] and in assay [2] were 4.38 and 5.47, respectively.

For `C=C1C(=O)[C@]23C[C@H]1CC[C@H]2[C@]1(C)[C@@H](O)CC[C@@](C)(C(=O)O)[C@H]1C[C@@H]3O`, the pIC50 is 4.90 in assay [1] and 5.69 in assay [2].

With `COc1cccc(NC(=O)Nc2nnc(CC(=O)Nc3ccccc3)s2)c1`, in assay [1], the IC50 was 55.8 µM (inactive). Moreover, the pIC50 in assay [2] was 5.31.

On to `CCC1(O)CC2CN(CCc3c([nH]c4ccccc34)C(C(=O)OC)(c3cc4c(cc3OC)N(C=O)C3C(O)(C(=O)OC)C(OC(C)=O)C5(CC)C=CCN6CCC43C65)C2)C1` (stereo not drawn), for which the IC50 in assay [1] is 63.1 µM (inactive). In addition, the pIC50 in assay [2] was 5.44.

As to `CCOc1ccccc1N1CCN(C(=O)c2cc(-c3cc(OC)ccc3OC)nc3ccccc23)CC1`, the pIC50 in assay [1] was 4.92; in assay [2] it was 5.39.

As to `COc1ccc2cc(C(N)=O)c(=Nc3ccc(C)cc3)oc2c1`, the pIC50 in assay [1] was 4.88; in assay [2] it was 5.59.

For `COC(=O)c1c(C)n(-c2ccc(OC)cc2)c2ccc(O)cc12`, the negative logarithm of the IC50 (pIC50) in assay [1] was 4.37; in assay [2] it was 5.63.

On to `O=C(NCCc1ccc(F)cc1)c1coc(=O)c(Br)c1`, for which the pIC50 in assay [1] was 4.67; in assay [2], 5.36.

With `CCOc1ccccc1NC(=S)Nc1ccc2cn[nH]c2c1`, the IC50 in assay [1] is 58.5 µM (inactive). The pIC50 in assay [2] is 5.24.

Regarding `Cc1c(Cl)cccc1NC(=O)CSc1nc2ncc(Cl)cc2[nH]1`, the pIC50 in assay [1] is 4.81; in assay [2], 4.97.

`Cn1c(N2CCN(C(c3ccccc3)c3ccccc3)CC2)nc2c1c(=O)[nH]c(=O)n2C`: the figures for the negative logarithm of the IC50 (pIC50) in assay [1] and in assay [2] were 5.12 and 5.43, respectively.

For `O=[N+]([O-])c1cccc(/C=N/Nc2cc(N3CCOCC3)ncn2)c1`, the figures for the pIC50 in assay [1] and in assay [2] were 4.72 and 5.49, respectively.

Regarding `CC1(Cc2cccc(F)c2)C(=O)Nc2ccc(-c3cccnc3)cc21` (stereo not drawn), the IC50 in assay [1] is 67.9 µM (inactive). Further, the pIC50 in assay [2] was 5.80.

Consider `CCOC(=O)c1sc(NC(=O)c2cccc(S(=O)(=O)N3CCc4ccccc43)c2)c(C#N)c1C`, for which the pIC50 in assay [1] is 5.16; in assay [2], 5.99.

Take `Brc1cccc(CSc2nnc(-c3ccncc3)o2)c1`: the IC50 in assay [1] is > 79 µM (inactive). Besides, the pIC50 in assay [2] is 5.16.

`CC(C)c1ccccc1NC(=O)COC(=O)c1c2c(nc3ccccc13)CCN(Cc1ccccc1)C2`: the pIC50 in assay [1] is 4.67; in assay [2], 5.16.

For `O=C(Nc1ccc2ccccc2c1)c1ccccc1O`, the pIC50 in assay [1] is 5.60; in assay [2] it was 5.29.

Take `COc1ccc(-n2cc(-c3ccccc3)c3c(N4CC(C)OC(C)C4)ncnc32)cc1` (stereo not drawn): the pIC50 in assay [1] is 5.45; in assay [2], 5.31.

In the case of `FC(F)Sc1ccc(NC(=S)NC(c2ccccc2)c2ccccc2)cc1`, the values for the negative logarithm of the IC50 (pIC50) in assay [1] and in assay [2] were 5.04 and 5.19, respectively.

As for `O=C(Nc1nc2ccc(F)cc2s1)C1CCN(S(=O)(=O)c2cc([N+](=O)[O-])ccc2Cl)CC1`, the pIC50 in assay [1] is 4.97; in assay [2], 5.19.

As to `COc1ccc(S(=O)(=O)N2c3cc(C)ccc3OCC2C(C)(C)C)cc1` (stereo not drawn), the IC50 in assay [1] was > 79 µM (inactive). Further, in assay [2], the pIC50 is 5.20.

As to `COc1ccc(OC)c(-c2nnc3n2N=C(c2ccc(OC)c(OC4CCCC4)c2)CS3)c1`, in assay [1], the IC50 is > 79 µM (inactive). In addition, in assay [2], the pIC50 is 5.19.

For the compound `COc1cc(CCc2ccccc2)c(C(=O)O)c(O)c1C/C=C(/C)CCC=C(C)C`, the pIC50 in assay [1] was 4.83; in assay [2] it was 5.20.

Consider `O=C(/C=C/c1cccc([N+](=O)[O-])c1)n1cnc2ccccc21`, for which the pIC50 in assay [1] was 4.95; in assay [2], 5.70.

Turning to `Cc1cccc(CNc2ncnc3ccc(-c4ccoc4)cc23)c1`, the negative-log IC50 (pIC50) in assay [1] is 5.22; in assay [2], > 6.82.

For the compound `Cc1cnc(C=O)c2cccc([N+](=O)[O-])c12`, the IC50 in assay [1] is 60.6 µM (inactive). Also, the negative logarithm of the IC50 (pIC50) in assay [2] was 5.47.

As to `COc1cccc(-c2cc(NC=O)c3ncc(-c4ccc(C(C)=O)cc4)n3c2)c1`, the values for the pIC50 in assay [1] and in assay [2] were 4.43 and 4.93, respectively.

In the case of `O=C1Cc2c([nH]c3ccc(Br)cc23)-c2ccccc2N1`, the figures for the negative logarithm of the IC50 (pIC50) in assay [1] and in assay [2] were 4.79 and 5.43, respectively.

Regarding `CCCN(CC)c1ncnc2[nH]ncc12`, the figures for the negative logarithm of the IC50 (pIC50) in assay [1] and in assay [2] were 4.44 and 5.81, respectively.

For the compound `O=c1[nH]nc(Sc2ncnc3sccc23)n1CCc1ccccc1`, the results for the pIC50 in assay [1] and in assay [2] were 4.72 and 5.51, respectively.

`CCOC(=O)c1c(-c2ccc(C)cc2)csc1NC(=O)c1ccc(N2C(=O)CCC2=O)cc1`: the IC50 in assay [1] is 61 µM (inactive). The IC50 entry in assay [2] is “inactive”.

On to `C/C(=N\Nc1cc(N2CCOCC2)ncn1)c1cccc([N+](=O)[O-])c1`, for which the pIC50 in assay [1] is 4.84; in assay [2], 5.38.

As to `COc1ccc(CN(CCC(c2ccc(F)cc2)C2CCOC(C)(C)C2)C(=O)c2ccco2)cc1` (stereo not drawn), the pIC50 is 5.05 in assay [1] and 5.18 in assay [2].

Take `Fc1ccccc1-c1csc(=Nc2cccnc2)n1CCCn1ccnc1`: the negative-log IC50 (pIC50) in assay [1] is 4.32; in assay [2], 5.23.

With `Cc1ccc(CNc2ncnc3ccc(-c4ccoc4C)cc23)o1`, the negative logarithm of the IC50 (pIC50) in assay [1] was 4.83; in assay [2] it was 6.42.

With `COc1ccc(-n2nc(C(=O)NCC(=O)Nc3cc(OC)c(OC)c(OC)c3)c3ccccc3c2=O)cc1OC`, the pIC50 in assay [1] was 4.84; in assay [2], 5.65.

Turning to `CCc1cc2c(Sc3nc4ccccc4s3)ncnc2s1`, the pIC50 in assay [1] is 5.76; in assay [2], 5.99.

Regarding `Cn1c(Oc2ccc(Cl)cc2)c(C=O)c2ccccc21`, the pIC50 in assay [1] is 4.87; in assay [2] it was 5.40.

`O=C(NCCC1=CCCCC1)c1coc(=O)c(Br)c1`: the values for the negative logarithm of the IC50 (pIC50) in assay [1] and in assay [2] were 4.97 and 5.52, respectively.

With `COC(=O)N1C(=O)[C@@](c2ccc(OC)cc2)(C(C)C)N1C(=O)OC`, the negative logarithm of the IC50 (pIC50) in assay [1] was 4.31; in assay [2] it was 5.33.

Regarding `O=C(Nc1ccc(OCC(=O)N2CCOCC2)cc1)c1cncc(Br)c1`, the IC50 in assay [1] is > 79 µM (inactive). In assay [2], the pIC50 is 5.18.

With `Oc1ccc(Br)cc1-c1nc2cnccn2c1NC1CCCC1`, the negative-log IC50 (pIC50) in assay [1] is 4.84; in assay [2], 5.52.

For `C=CCN(CC=C)c1ncnc2[nH]ncc12`, the IC50 in assay [1] was > 79 µM (inactive). The pIC50 in assay [2] was 5.91.

`O=C1OC(c2ccccc2)(c2cc(Br)ccc2O)c2ccccc21` (stereo not drawn): the pIC50 in assay [1] is 4.37; in assay [2], 5.18.

Consider `CCc1ccc(Nc2n[n+](-c3ccccc3)c(-c3c(Cl)cccc3Cl)s2)cc1`, for which the results for the pIC50 in assay [1] and in assay [2] were 5.20 and 5.26, respectively.

Consider `O=Nc1ccc(NO)c2ccccc12`, for which the figures for the pIC50 in assay [1] and in assay [2] were 4.76 and 5.14, respectively.

As for `COc1ccc(Nc2nccc(-c3cccc(N)c3)n2)cc1`, the pIC50 was 4.37 in assay [1] and 5.38 in assay [2].

In the case of `COc1cccc(-c2ccc3ncnc(NCc4cc(C)cs4)c3c2)c1`, the pIC50 was 4.57 in assay [1] and 5.41 in assay [2].

Consider `Cc1ccc(CNc2ncnc(N)c2[N+](=O)[O-])cc1`, for which the IC50 in assay [1] is 73.3 µM (inactive). In addition, the negative-log IC50 (pIC50) in assay [2] is 5.19.

On to `O=C(NCCc1ccccc1)c1coc(=O)c(Br)c1`, for which the negative logarithm of the IC50 (pIC50) in assay [1] was 4.94; in assay [2] it was 5.31.

Turning to `COc1ccc(-c2cnc(N)nc2-c2ccc(OC)cc2O)cc1`, the negative-log IC50 (pIC50) in assay [1] is 4.44; in assay [2], 5.33.

For `Cc1ccnc(Nc2nc(-c3sc(C)nc3C)cs2)c1`, the pIC50 in assay [1] is 4.78; in assay [2] it was 5.29.

Regarding `Cc1ccc(NS(=O)(=O)c2ccc(-c3cnc(C4CC4)o3)cc2)c(C)c1`, the results for the negative logarithm of the IC50 (pIC50) in assay [1] and in assay [2] were 4.49 and 4.85, respectively.

With `O=C(Oc1ccc(F)cc1C(=O)/C=C/c1cccs1)c1cccc([N+](=O)[O-])c1`, the IC50 in assay [1] was > 79 µM (inactive). The IC50 entry in assay [2] was “inactive”.

With `CC(=O)Oc1c(C(=O)c2nnc(C)o2)c(=O)n(Cc2ccccc2)c2ccccc12`, the negative logarithm of the IC50 (pIC50) is 4.83 in assay [1] and 5.63 in assay [2].

With `Cc1nnc(SCC(=O)N2CCC(c3noc4ccc(F)cc34)CC2)s1`, the IC50 in assay [1] was > 79 µM (inactive). Moreover, the pIC50 in assay [2] was 5.93.

On to `Cc1ccc(NC(=O)CSc2ncnc3ccccc23)cc1S(=O)(=O)N1CCOCC1`, for which the negative logarithm of the IC50 (pIC50) is 4.46 in assay [1] and 5.38 in assay [2].

`Nc1nc(N)nc(-c2cc(O)ccc2O)n1`: the pIC50 was 4.67 in assay [1] and 5.48 in assay [2].

For `CC(C)Nc1ncnc2ccc(Br)cc12`, the pIC50 in assay [1] is 4.97; in assay [2], 6.15.

Take `CN(C)CCCN(C(=O)CCOc1ccccc1)c1nc2ccc(F)cc2s1`: the pIC50 in assay [1] was 4.90; in assay [2], 5.60.

With `Cc1ccc(S(=O)(=O)Nc2ccc3cc([N+](=O)[O-])ccc3c2[N+](=O)[O-])cc1`, the pIC50 in assay [1] is 5.38; in assay [2], 5.50.

For `Cc1c(C=O)c(C=O)c(C)n1Cc1ccccc1`, the pIC50 was 5.33 in assay [1] and 5.79 in assay [2].

Take `COc1ccc(CN(C(=O)CSc2nnc(-c3c[nH]c4ccccc34)o2)c2ccc(F)cc2)cc1OC`: the pIC50 in assay [1] was 5.13; in assay [2] it was 5.40.

Consider `C[C@@H]1CC=C[C@H]2[C@H]1C(=O)N(Cc1ccccc1)[C@H]2c1ccc2ccccc2c1Br`, for which the pIC50 was 4.89 in assay [1] and 5.30 in assay [2].

Turning to `CCN1CCN(Cc2ccc(NC(=O)c3ccc(C)c(NC(=O)N4CCNC4=O)c3)cc2C(F)(F)F)CC1`, the negative-log IC50 (pIC50) was 4.53 in assay [1] and 5.79 in assay [2].

Take `Cc1cccc(N2CCN(C(=O)c3[nH]c(C(F)(F)F)nc3-c3ccccc3)CC2)c1C`: the IC50 in assay [1] was > 79 µM (inactive). In addition, the negative-log IC50 (pIC50) in assay [2] is 4.75.

Turning to `O=C(c1ccccc1)C1OC1C(=O)c1ccccc1` (stereo not drawn), in assay [1], the IC50 is 54.5 µM (inactive). Besides, the negative-log IC50 (pIC50) in assay [2] is 5.20.

In the case of `CC(C)C[C@@H](CN1CCCC1CN1C(=S)NC[C@@H]1Cc1ccc(O)cc1)N1C[C@H](Cc2ccc(O)cc2)N(CCc2ccccc2)C1=S` (stereo partly drawn), the negative-log IC50 (pIC50) was 4.74 in assay [1] and 4.96 in assay [2].
